Measured values: patent US12459899B2, “Isoquinolinone derivatives, method for preparing the same, and pharmaceutical composition for preventing or treating poly(ADP-ribose) polymerase-1-related diseases, comprising the same as active ingredient” (DIGMBIO. INC., priority 2019, dated 2025)
Structures can show the parent of a compound that is named as a salt.

Target: PARP-1 (poly[ADP-ribose] polymerase 1) enzyme (Homo sapiens (Human), UniProt P09874)
Assay: PARP-1 (poly[ADP-ribose] polymerase 1) enzyme inhibitory ability, Trevigen assay kit
Assay type: biochemical
Conditions: for inhibition at 0.001 µM: 1 nM compound, read-out: PAR P-1 Inhibitory ability at 1 nM; for IC50: PARP-1 enzyme activity
Experimental: In order to evaluate the PARP-1 (poly[ADP-ribose] polymerase 1) enzyme inhibitory ability of the compounds according to the present invention, an experiment was conducted as follows.
Specifically, in order to evaluate the PARP-1 (poly[ADP-ribose] polymerase 1) enzyme inhibitory ability of the compounds of Examples 1 to 276 according to the present invention, the PARP-1 (poly[ADP-ribose] polymerase 1) activity was investigated in the following manner using an assay kit purchased from Trevigen, Inc. (Catalog number: 4677-096-K). 50 μL of 1×PARP buffer (provided by Trevigen's kit) was dispensed into a 96-well plate coated with histones per each well, and then rehydrated for 30 minutes. After removing the 1×PARP buffer present in the well, PARP-1 (poly[ADP-ribose] polymerase 1) enzyme (0.5 unit/well) and 1 μM concentration or various concentrations of the compounds of Example 1 to 276 were added at room temperature and reacted for 10 minutes. Thereafter, each well was treated with 25 μL of 1×PARP cocktail (biotinylated NAD, activated DNA, provided by Trevigen's kit), and then reacted at room temperature for 1 hour. After the reaction was completed, each well was washed twice with PBS (7.5 mM Na2HPO4, 2.5 mM NaH2PO4, 145 mM NaCl) containing 0.1% triton X-100, and washed twice with PBS. Then, 50 μL of strep-HRP (streptavidin-linked peroxidase) was added and reacted at room temperature for 1 hour, and then washed twice with PBS containing 0.1% triton X-100, and washed twice with PBS. After removing all PBS, 50 μL of TACS-sapphire, a substrate, was added, and reacted at room temperature for 15 minutes while blocking the light. After the reaction was terminated by treatment with 50 μL of 5% phosphoric acid to each well, the absorbance was measured at 450 nm using a microplate reader Victor3 from PerkinElmer, Inc. to quantify the value.

Sequence of PARP-1 (poly[ADP-ribose] polymerase 1) enzyme (P09874 whole entry): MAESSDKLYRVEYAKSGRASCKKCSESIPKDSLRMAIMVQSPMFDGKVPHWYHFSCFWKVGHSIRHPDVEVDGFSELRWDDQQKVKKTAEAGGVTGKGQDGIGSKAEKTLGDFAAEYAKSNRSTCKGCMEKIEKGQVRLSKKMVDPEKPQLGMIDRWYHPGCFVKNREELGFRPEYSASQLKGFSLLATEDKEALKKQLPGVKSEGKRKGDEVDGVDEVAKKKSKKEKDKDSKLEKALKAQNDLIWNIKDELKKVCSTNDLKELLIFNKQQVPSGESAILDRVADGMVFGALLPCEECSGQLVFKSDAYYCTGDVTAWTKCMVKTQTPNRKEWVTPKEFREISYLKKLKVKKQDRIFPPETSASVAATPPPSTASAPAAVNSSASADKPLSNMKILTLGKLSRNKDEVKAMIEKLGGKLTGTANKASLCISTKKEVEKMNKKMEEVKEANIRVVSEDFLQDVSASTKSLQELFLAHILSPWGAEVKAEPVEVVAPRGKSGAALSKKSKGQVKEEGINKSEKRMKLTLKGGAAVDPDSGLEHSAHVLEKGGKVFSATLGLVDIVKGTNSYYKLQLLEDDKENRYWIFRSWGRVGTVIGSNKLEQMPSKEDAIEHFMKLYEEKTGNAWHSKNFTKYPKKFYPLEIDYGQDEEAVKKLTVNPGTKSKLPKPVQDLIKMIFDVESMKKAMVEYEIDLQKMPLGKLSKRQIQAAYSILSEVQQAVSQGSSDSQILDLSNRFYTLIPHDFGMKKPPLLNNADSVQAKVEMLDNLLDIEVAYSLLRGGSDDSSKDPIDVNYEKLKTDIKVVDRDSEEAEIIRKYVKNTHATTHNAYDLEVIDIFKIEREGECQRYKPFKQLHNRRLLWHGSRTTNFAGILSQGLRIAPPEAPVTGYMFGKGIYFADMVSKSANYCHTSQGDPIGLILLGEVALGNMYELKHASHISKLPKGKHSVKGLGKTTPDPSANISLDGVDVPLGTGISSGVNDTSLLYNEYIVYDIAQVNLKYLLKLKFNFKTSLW

inhibition at 0.001 µM [%] | IC50 (hydrochloride) [nM] | IC50 [nM] | Structure (SMILES)
< 50 | – | – | N#Cc1ccc(N2CCN(CCCc3cc4cccc(F)c4c(=O)[nH]3)CC2)cn1 [Example 2, 5-(4-(3-(8-fluoro-1-oxo-1,2-dihydroisoquinolin-3-yl)propyl)piperazin-1-yl)picolinonitrile]
< 50 | – | – | N#Cc1ccc(N2CCN(CCCc3cc4cccc(F)c4c(=O)[nH]3)CC2)nc1 [Example 3, 6-(4-(3-(8-fluoro-1-oxo-1,2-dihydroisoquinolin-3-yl)propyl)piperazin-1-yl)nicotinonitrile]
< 50 | – | – | O=c1[nH]c(CCCN2CCN(c3ccc(C(F)(F)F)cc3)CC2)cc2cccc(F)c12 [Example 4, 8-fluoro-3-(3-(4-(4-(trifluoromethyl)phenyl)piperazin-1-yl)propyl)isoquinolin-1(2H)-one]
< 50 | – | – | N#Cc1ccc(N2CCN(CCCc3cc4cccc(F)c4c(=O)[nH]3)CC2)cc1F [Example 5, 2-fluoro-4-(4-(3-(8-fluoro-1-oxo-1,2-dihydroisoquinolin-3-yl)propyl)piperazin-1-yl)benzonitrile]
50 to 80 | 0.41 | – | N#Cc1ccc(N2CCN(CCCc3cc4cccc(F)c4c(=O)[nH]3)CC2)cc1 [Example 6, 4-(4-(3-(8-fluoro-1-oxo-1,2-dihydroisoquinolin-3-yl)propyl)piperazin-1-yl)benzonitrile hydrochloride]
50 to 80 | – | 0.72 | N#Cc1ccc(N2CCN(CCCc3cc4ccc(F)cc4c(=O)[nH]3)CC2)cc1 [Example 8, 4-(4-(3-(7-fluoro-1-oxo-1,2-dihydroisoquinolin-3-yl)propyl)piperazin-1-yl)benzonitrile]
< 50 | – | – | O=c1[nH]c(CCCN2CCN(c3ccc(C(F)(F)F)cc3)CC2)cc2ccc(F)cc12 [Example 9, 7-fluoro-3-(3-(4-(4-(trifluoromethyl)phenyl)piperazin-1-yl)propyl)isoquinolin-1(2H)-one]
50 to 80 | – | – | N#Cc1ccc(N2CCN(CCCc3cc4ccc(F)cc4c(=O)[nH]3)CC2)cn1 [Example 10, 5-(4-(3-(7-fluoro-1-oxo-1,2-dihydroisoquinolin-3-yl)propyl)piperazin-1-yl)picolinonitrile]
< 50 | – | – | O=c1[nH]c(CCCN2CCN(c3cccc([N+](=O)[O-])c3)CC2)cc2ccc(F)cc12 [Example 11, 7-fluoro-3-(3-(4-(3-nitrophenyl)piperazin-1-yl)propyl)isoquinolin-1(2H)-one]
< 50 | – | – | O=c1[nH]c(CCCN2CCN(c3ncccn3)CC2)cc2ccc(F)cc12 [Example 13, 7-fluoro-3-(3-(4-(pyrimidin-2-yl)piperazin-1-yl)propyl)isoquinolin-1(2H)-one]
– | – | 4.01 | O=c1[nH]c(CCCN2CCN(c3ccc(F)cc3)CC2)cc2ccc(F)cc12 [Example 15, 7-fluoro-3-(3-(4-(4-fluorophenyl)piperazin-1-yl)propyl)isoquinolin-1(2H)-one]
< 50 | – | – | O=c1[nH]c(CCCN2CCN(c3cccc(OC(F)(F)F)c3)CC2)cc2ccc(F)cc12 [Example 16, 7-fluoro-3-(3-(4-(3-(trifluoromethoxy)phenyl)piperazin-1-yl)propyl)isoquinolin-1(2H)-one]
< 50 | – | – | O=c1[nH]c(CCCN2CCN(c3cccc(Cl)c3)CC2)cc2ccc(F)cc12 [Example 17, 3-(3-(4-(3-chlorophenyl)piperazin-1-yl)propyl)-7-fluoroisoquinolin-1(2H)-one]
< 50 | – | – | COC(=O)c1cccc(N2CCN(CCCc3cc4ccc(F)cc4c(=O)[nH]3)CC2)c1 [Example 18, methyl 3-(4-(3-(7-fluoro-1-oxo-1,2-dihydroisoquinolin-3-yl)propyl)piperazin-1-yl)benzoate]
< 50 | – | – | O=C(O)c1cccc(N2CCN(CCCc3cc4ccc(F)cc4c(=O)[nH]3)CC2)c1 [Example 19, 3-(4-(3-(7-fluoro-1-oxo-1,2-dihydroisoquinolin-3-yl)propyl)piperazin-1-yl)benzoic acid]
< 50 | – | – | CC(=O)Nc1cccc(N2CCN(CCCc3cc4ccc(F)cc4c(=O)[nH]3)CC2)c1 [Example 20, N-(3-(4-(3-(7-fluoro-1-oxo-1,2-dihydroisoquinolin-3-yl)propyl)piperazin-1-yl)phenyl)acetamide]
< 50 | – | 1.09 | Cc1ccc(F)c2c(=O)[nH]c(CCCN3CCN(c4ccc(C#N)nc4)CC3)cc12 [Example 21, 5-(4-(3-(8-fluoro-5-methyl-1-oxo-1,2-dihydroisoquinolin-3-yl)propyl)piperazin-1-yl)picolinonitrile]
< 50 | – | 1.2 | Cc1ccc(F)c2c(=O)[nH]c(CCCN3CCN(c4ccc(C#N)cn4)CC3)cc12 [Example 22, 6-(4-(3-(8-fluoro-5-methyl-1-oxo-1,2-dihydroisoquinolin-3-yl)propyl)piperazin-1-yl)nicotinonitrile]
< 50 | – | 0.76 | Cc1ccc(F)c2c(=O)[nH]c(CCCN3CCN(c4ccc(C#N)cc4)CC3)cc12 [Example 23, 4-(4-(3-(8-fluoro-5-methyl-1-oxo-1,2-dihydroisoquinolin-3-yl)propyl)piperazin-1-yl)benzonitrile]
< 50 | – | – | Cc1ccc(F)c2c(=O)[nH]c(CCCN3CCN(c4ccccn4)CC3)cc12 [Example 24, 8-fluoro-5-methyl-3-(3-(4-(pyridin-2-yl)piperazin-1-yl)propyl)isoquinolin-1(2H)-one]
< 50 | – | – | Cc1ccc(F)c2c(=O)[nH]c(CCCN3CCN(c4ncccn4)CC3)cc12 [Example 25, 8-fluoro-5-methyl-3-(3-(4-(pyrimidin-2-yl)piperazin-1-yl)propyl)isoquinolin-1(2H)-one]
50 to 80 | – | – | Cc1ccc(F)c2c(=O)[nH]c(CCCN3CCN(c4ccc(C#N)cc4F)CC3)cc12 [Example 26, 3-fluoro-4-(4-(3-(8-fluoro-5-methyl-1-oxo-1,2-dihydroisoquinolin-3-yl)propyl)piperazin-1-yl)benzonitrile]
< 50 | – | – | Cc1ccc(F)c2c(=O)[nH]c(CCCN3CCN(c4ccc(C(F)(F)F)cc4)CC3)cc12 [Example 27, 8-fluoro-5-methyl-3-(3-(4-(4-(trifluoromethyl)phenyl)piperazin-1-yl)propyl)isoquinolin-1(2H)-one]
< 50 | – | – | Cc1ccc(F)c2c(=O)[nH]c(CCCN3CCN(c4ccccc4C#N)CC3)cc12 [Example 28, 2-(4-(3-(8-fluoro-5-methyl-1-oxo-1,2-dihydroisoquinolin-3-yl)propyl)piperazin-1-yl)benzonitrile]
< 50 | – | – | Cc1ccc(F)c2c(=O)[nH]c(CCCN3CCN(c4nccs4)CC3)cc12 [Example 29, 8-fluoro-5-methyl-3-(3-(4-(thiazole-2-yl)piperazin-1-yl)propyl)isoquinolin-1(2H)-one]
< 50 | – | – | Cc1cnc(N2CCN(CCCc3cc4c(C)ccc(F)c4c(=O)[nH]3)CC2)s1 [Example 30, 8-fluoro-5-methyl-3-(3-(4-(5-methylthiazole-2-yl)piperazin-1-yl)propyl)isoquinolin-1(2H)-one]
< 50 | – | – | Cc1ccc(F)c2c(=O)[nH]c(CCCN3CCN(c4ccc(Cl)cc4)CC3)cc12 [Example 33, 3-(3-(4-(4-chlorophenyl)piperazin-1-yl)propyl)-8-fluoro-5-methylisoquinolin-1(2H)-one]
< 50 | – | – | Cc1cc(F)cc2c(=O)[nH]c(CCCN3CCN(c4ccc(C#N)cc4)CC3)cc12 [Example 34, 4-(4-(3-(7-fluoro-5-methyl-1-oxo-1,2-dihydroisoquinolin-3-yl)propyl)piperazin-1-yl)benzonitrile]
< 50 | – | – | Cc1cc(F)cc2c(=O)[nH]c(CCCN3CCN(c4ccc(C#N)nc4)CC3)cc12 [Example 35, 5-(4-(3-(7-fluoro-5-methyl-1-oxo-1,2-dihydroisoquinolin-3-yl)propyl)piperazin-1-yl)picolinonitrile]
50 to 80 | – | – | Cc1cc(F)cc2c(=O)[nH]c(CCCN3CCN(c4ccc(C#N)cn4)CC3)cc12 [Example 36, 6-(4-(3-(7-fluoro-5-methyl-1-oxo-1,2-dihydroisoquinolin-3-yl)propyl)piperazin-1-yl)nicotinonitrile]

Structure (SMILES) | inhibition at 0.001 µM [%] | IC50 (hydrochloride) [nM] | IC50 [nM]
N#Cc1ccc(N2CC3CCC(C2)N3CCCc2cc3cccc(F)c3c(=O)[nH]2)cc1 [Example 7, 4-(8-(3-(8-fluoro-1-oxo-1,2-dihydroisoquinolin-3-yl)propyl)-3,8-diazabicyclo[3.2.1]octan-3-yl)benzonitrile] | < 50 | – | –
Cc1ccc(F)c2c(=O)[nH]c(CCCN3CC[C@H](c4ccc(F)cc4)C3)cc12 [Example 31, (R)-8-fluoro-3-(3-(3-(4-fluorophenyl)pyrrolidin-1-yl)propyl)-5-methylisoquinolin-1(2H)-one] | < 50 | – | –
Cc1ccc(F)c2c(=O)[nH]c(CCCN3CC[C@@H](c4ccc(F)cc4)C3)cc12 [Example 32, (S)-8-fluoro-3-(3-(3-(4-fluorophenyl)pyrrolidin-1-yl)propyl)-5-methylisoquinolin-1(2H)-one] | < 50 | – | –
